Test results from US20240201589A1, “ACTINIC RAY-SENSITIVE OR RADIATION-SENSITIVE RESIN COMPOSITION, ACTINIC RAY-SENSITIVE OR RADIATION-SENSITIVE FILM, PATTERN FORMING METHOD, AND METHOD FOR MANUFACTURING ELECTRONIC DEVICE” (FUJIFILM Corporation, priority 2021, published 2024).

Experiment: Acid dissociation constants pKa of acid generated from compound (I), by computation (ACD/Labs software package 1; Gaussian 16 DFT if not computable)
Conditions: Table 1; values equal the difference between maximum and minimum pKa of the generated acid groups
From the text: In the present specification, the acid dissociation constant (pKa) is the pKa in an aqueous solution and is specifically a value determined by computation using the following software package 1 based on a Hammett substituent constant and a database of known literature values.
All pKa values in the present specification are values determined by computation using this software package.
Software package 1: Advanced Chemistry Development (ACD/Labs) Software V 8.14 for Solaris (1994-2007 ACD/Labs).
In the present specification, the pKa is a value determined by computation using the software package 1 based on the Hammett substituent constant and the database of known literature values as described above. When the pKa cannot be computed using this method, a value obtained using Gaussian 16 based on the DFT (density functional theory) is used.
The pKa values of the at least two acid groups generated from the compound (I) upon irradiation with actinic rays or radiation are determined using the following method.
(1) Suppose that all the acid anionic groups included in the compound (I) are replaced with their corresponding acid groups to generate an acid group-containing compound (PIA). In this case, there are two cases depending on the structure of the compound (I). In one case (case A), the acid group-containing compound (PIA) generated is a single compound (single molecule) having a plurality of acid groups. In the other case (case B), a plurality of compounds (plurality of molecules) each having at least one acid group are formed.
(2) The case A (its one specific example is mode 1 described below) will be described. A compound in which, among the plurality of acid groups included in the acid group-containing compound (PIA), an acid group having the smallest acid dissociation constant is reconverted to the corresponding acid anionic group is defined as an acid group-containing compound (PIA-1). The pKa when the acid group-containing compound (PIA) is converted to the acid group-containing compound (PIA-1) is determined and used as the pKa of the acid group reconverted to the acid anionic group. Next, a compound in which, among one or the plurality of acid groups included in the acid group-containing compound (PIA-1), an acid group having the smallest acid dissociation constant (when only one acid group is present, this acid group is used) is reconverted to the corresponding acid anionic group is defined as an acid group-containing compound (PIA-2). The pKa when the acid group-containing compound (PIA-1) is converted to the acid group-containing compound (PIA-2) is determined and used as the pKa of the acid group reconverted to the acid anionic group. This procedure is repeated until the resulting compound has no acid group, and the pKa values of the plurality of acid groups included in the acid group-containing compound (PIA) are thereby determined.
In the above method, when the number of acid groups having the smallest acid dissociation constant among the plurality of acid groups is two or more, one of these acid groups is arbitrarily selected, and the pKa when the compound is converted to a compound (PIA #) obtained by reconverting the selected acid group to its corresponding acid anionic group is determined. As for the pKa value of each of the remaining (unselected) acid groups, the pKa when the compound (PIA #) is converted to a “compound (PIA ##) obtained by reconverting an acid group newly selected from the remaining acid groups to its corresponding acid anionic group” is determined and used.
For a compound having one acid group, the pKa when the acid group in this compound is reconverted to the corresponding acid anionic group is used as the pKa of the acid group. When the compound having at least one acid group is a compound having a plurality of acid groups, the pKa of each acid group is determined using the method described in (2) above. […]

Structure (SMILES) | pKa
O=C([N-]C(=O)c1ccccc1[I+]c1ccccc1)c1ccc([I+]c2ccc(OS(=O)(=O)C(F)(F)C(F)(F)C(F)(F)S(=O)(=O)[O-])cc2)cc1 [Compound X-16] | 12.11
COc1ccc([I+]c2cccc(C(=O)NS(=O)(=O)C(F)(F)C(F)(F)C(F)(F)S(=O)(=O)[N-]S(=O)(=O)C(F)(F)F)c2)cc1 [Compound X-11] | 10.26
Cc1ccc([I+]c2ccc(C(=O)NS(=O)(=O)C(F)(F)C(F)(F)C(F)(F)S(=O)(=O)[N-]S(=O)(=O)C(F)(F)F)cc2)cc1 [Compound X-12] | 5.67
O=S(=O)(O)c1ccc([S+](c2ccccc2)c2ccc(OCC(F)(F)S(=O)(=O)[O-])cc2)cc1 (stereo not shown) [Compound X-6] | 0.77
O=C([N-]S(=O)(=O)C(F)(F)C(F)(F)C(F)(F)S(=O)(=O)[N-]C(=O)c1ccccc1[S+](c1ccccc1)c1ccccc1)c1ccccc1[I+]c1ccccc1 [Compound X-9] | 0.89
O=C(NC(=O)C(F)(F)S(=O)(=O)[O-])c1ccc([S+](c2ccccc2)c2ccccc2)cc1 [Compound X-1] | 9.96
O=C(NC(C(F)(F)F)C(F)(F)S(=O)(=O)[O-])c1ccc([S+](c2ccccc2)c2ccccc2S(=O)(=O)O)cc1 (stereo not shown) [Compound X-3] | 1.24
